Reference: ChEMBL document CHEMBL5113371, “Lipolytic enzymes inhibitors: A new way for antibacterial drugs discovery” (Eur J Med Chem, 2021)
In brackets after ≈: the same amount, converted by molar mass.

Columns and labels:
[1] = test system: RAW264.7; assay: Cytotoxicity against mouse RAW264.7 cells; type: functional
[2] = test system: Mycobacterium tuberculosis; assay: Inhibition of Mycobacterium tuberculosis Lipy assessed as pomegranate oil TAG lipolysis at 20 times molar excess of inhibitor concentration related to 1 mole of enzyme incubated for 30 mins by microtitre plate assay
[3] = test system: Mycobacterium tuberculosis; assay: Inhibition of Mycobacterium tuberculosis Lipy incubated for 30 mins by UV spectrophotometric analysis
[4] = test system: Mycobacterium tuberculosis; assay: Inhibition of Mycobacterium tuberculosis Lipy assessed as pomegranate oil TAG lipolysis at 4 times molar excess of inhibitor concentration related to 1 mole of enzyme incubated for 30 mins by microtitre plate assay
[5] = Inhibition of Mycobacterium tuberculosis Cut6
[6] = test system: RAW264.7; assay: (§1) Antibacterial activity against Mycobacterium Mycobacterium abscessus CIP 104536T infected in mouse RAW264.7 cells assessed as […] incubated for 4 to 5 days; type: functional; conditions: Mycobacteroides abscessus, time 4-5 day
[7] = test system: Mycobacteroides abscessus; assay: Antibacterial activity against Mycobacterium abscessus CIP 104536T smooth morphotype incubated for 1 to 14 days; type: functional; conditions: time 1-14 day
[8] = test system: Mycobacteroides abscessus; assay: Antibacterial activity against Mycobacterium abscessus CIP 104536T rough morphotype incubated for 1 to 14 days; type: functional; conditions: time 1-14 day
[9] = as §1; type: functional; conditions: Mycobacteroides abscessus, time 4-5 day
[10] = test system: Mycobacterium tuberculosis; assay: Antibacterial activity against Mycobacterium tuberculosis; type: functional
[11] = Antibacterial activity against Mycobacterium Mycobacterium abscessus CIP 104536T infected in mouse RAW264.7 cells assessed as bacterial viability at 30 uM incubated for 4 to 5 days relative to control; type: functional, Mycobacteroides abscessus; conditions: time 4-5 day
[12] = test system: Mycobacterium tuberculosis; assay: Antibacterial activity against Mycobacterium tuberculosis incubated for 2 to 3 weeks; type: functional; conditions: time 2-3 weeks
[13] = test system: Mycobacterium; assay: Antibacterial activity against Mycobacterium by REMA assay; type: functional

| Compound | CC50 [1] | inhibition [2] | I50 [3] | inhibition [4] | MIC50 [7] | MIC50 [8] | further results |
| --- | --- | --- | --- | --- | --- | --- | --- |
| CCCCC[C@H]1CC[P@@](=O)(OC)OC(C)=C1C(=O)OC | > 100 µM |  |  |  |  |  |  |
| CCOc1nn(-c2cccc(Oc3ccccc3)c2)c(=O)o1 |  | 53.8% | 6.5 molar excess | 21.7% |  |  |  |
| CCCCCCCCCCC[C@@H](C[C@@H]1OC(=O)[C@H]1CCCCCC)OC(=O)[C@@H]1CCCN1C(C)=O |  |  |  |  |  |  | IC50 [5]: 0.2 µM |
| CCCCCCCCCCCCCCCCO[P@]1(=O)OC[C@@H]2COC(=O)C2=C(C)O1 | > 100 µM |  |  |  |  |  |  |
| CCCCCCCCCCC[C@@H](C[C@@H]1OC(=O)[C@H]1CCCCCC)OC(=O)[C@H](CC(C)C)NC=O [ORLISTAT] |  | 87.6% | 7.1 molar excess | 26.8% |  |  | IC50 [5]: 3.8 µM |
| CCCCCCCCCCCCOc1nn(-c2cccc(Oc3ccccc3)c2)c(=O)o1 |  | 90.4% | 0.77 molar excess | 88.7% |  |  |  |
| CCCCCCCCCCC1=C(C(=O)OC)CCOP(=O)(OC)O1 (stereo unspecified) |  |  |  |  | 85 µM (≈ 30.8 µg/mL) | 13.9 µM (≈ 5.04 µg/mL) | MIC50 [6]: NE |
| NNC(=O)c1ccncc1 [ISONIAZID] | > 150 µM |  |  |  |  |  |  |
| CCCCCCCCCC[C@@H]1CC[P@@](=O)(OC)OC(C)=C1C(=O)OC | > 100 µM |  |  |  | > 100 µM | > 100 µM | MIC50 [9]: 29.3 µM (≈ 11 µg/mL) |
| CO[C@H]1/C=C/O[C@@]2(C)Oc3c(C)c(O)c4c(O)c(c(/C=N/N5CCN(C)CC5)c(O)c4c3C2=O)NC(=O)/C(C)=C\C=C\[C@H](C)[C@H](O)[C@@H](C)[C@@H](O)[C@@H](C)[C@H](OC(C)=O)[C@@H]1C [RIFAMPIN] | 24 µM |  |  |  |  |  |  |
| CCCCCC(CC)Oc1nn(-c2cccc(Oc3ccccc3)c2)c(=O)o1 (stereo unspecified) |  | 94.8% | 0.73 molar excess | 89.6% |  |  |  |
| CC(C)COc1nn(-c2ccccc2)c(=O)o1 | > 100 µM | 47.9% | 9.2 molar excess | 31.6% |  |  |  |
| C=CCCCCCCC[C@H]1C(=O)O[C@@H]1CCCCCNC(=O)c1ccc(N(C)C)cc1 |  |  |  |  |  |  | INH [10]: 1.6 µM |
| CCCCCCCCCC[C@H]1CC[P@@](=O)(OC)OC(C)=C1C(=O)OC | > 100 µM |  |  |  | > 100 µM | > 100 µM | MIC50 [9]: 65.3 µM (≈ 24.5 µg/mL) |
| CCCCCCCCCCCCCCCCC1=C(C(=O)OC)CCOP(=O)(OC)O1 (stereo unspecified) |  |  |  |  | 60 µM (≈ 26.8 µg/mL) | 6.9 µM (≈ 3.08 µg/mL) | MIC50 [6]: NE |
| CC(C)COc1nn(-c2ccc(Oc3ccccc3)cc2)c(=O)o1 | > 100 µM | 41.6% | > 40 molar excess | 33.8% | 33 µM (≈ 10.8 µg/mL) | 53.2 µM (≈ 17.4 µg/mL) | MIC50 [9]: < 30 µM; Activity [11]: 59% |
| O=c1oc(OCCOCc2ccccc2)nn1-c1ccccc1 | > 100 µM | 92.2% | 0.61 molar excess | 89% |  |  |  |
| COc1nn(-c2ccc(Oc3ccccc3)cc2)c(=O)o1 |  | 79.4% | 0.93 molar excess | 60.8% | 88.2 µM (≈ 25.1 µg/mL) | > 200 µM | MIC50 [9]: 75.2 µM (≈ 21.4 µg/mL) |
| CCCCCCCCCCCCCCCCO[P@]1(=O)OC[C@H]2COC(=O)C2=C(C)O1 | > 100 µM |  |  |  |  |  |  |
| CCCCCCCCCCCC[C@@H]1CC[P@@](=O)(OC)OC(C)=C1C(=O)OC | > 100 µM |  |  |  | > 100 µM | > 100 µM | MIC50 [9]: 7.9 µM (≈ 3.18 µg/mL) |

| Compound | CC50 [1] | inhibition [2] | I50 [3] | inhibition [4] | MIC50 [7] | MIC50 [8] | further results |
| --- | --- | --- | --- | --- | --- | --- | --- |
| CC(C)COc1nn(-c2cccc(Oc3ccccc3)c2)c(=O)o1 |  | 49.4% | 3.9 molar excess | 37.4% |  |  |  |
| CCCCCCCCOc1nn(-c2cccc(Oc3ccccc3)c2)c(=O)o1 |  | 86.6% | 0.71 molar excess | 83.2% |  |  |  |
| CCCCCCCCCCC[C@@H](C[C@@H]1OC(=O)[C@H]1CCCCCC)OC(=O)[C@@H]1CCCN1C=O |  |  |  |  |  |  | IC50 [5]: 0.2 µM |
| O=c1oc(OCCOCc2ccccc2)nn1-c1cccc(Oc2ccccc2)c1 |  | 90.2% | 0.72 molar excess | 88% |  |  |  |
| CCCCCCOc1nn(-c2ccc(Oc3ccccc3)cc2)c(=O)o1 | > 100 µM | 77.2% | 2.9 molar excess | 38.7% |  |  |  |
| COc1nn(-c2cccc(Oc3ccccc3)c2)c(=O)o1 |  | 85.9% | 2.4 molar excess | 63.6% |  |  | MIC [12]: 50 µM (≈ 14.2 µg/mL) |
| COc1nn(-c2ccccc2)c(=O)o1 |  | 81.8% | 10.9 molar excess | 34.4% | > 200 µM | > 200 µM | MIC50 [9]: 36.5 µM (≈ 7.01 µg/mL) |
| CCCCCCOc1nn(-c2cccc(Oc3ccccc3)c2)c(=O)o1 |  | 76.5% | 3.3 molar excess | 39.9% |  |  |  |
| CCCCOc1nn(-c2cccc(Oc3ccccc3)c2)c(=O)o1 |  | 63.7% | > 40 molar excess | 15.6% |  |  |  |
| CCCCCCCCCCC[C@@H](C[C@@H]1OC(=O)[C@H]1CCCCCC)OC(=O)[C@H]1CCCN1C=O |  |  |  |  |  |  | IC50 [5]: 0.2 µM |
| CCCCCCOc1nn(-c2ccccc2)c(=O)o1 | > 100 µM | 38.8% | > 40 molar excess | 35% |  |  |  |
| CCCCCCCCCCCCCCCCOP1(=O)OCCC(C(=O)OC)=C(C)O1 (stereo unspecified) | > 100 µM |  |  |  | 12.7 µM (≈ 5.67 µg/mL) | 0.37 µM (≈ 0.165 µg/mL) | MIC [13]: 2 µg/mL (≈ 4.48 µM); MIC50 [6]: NE |
| CCCCCCCCCCOc1nn(-c2cccc(Oc3ccccc3)c2)c(=O)o1 |  | 94.2% | 0.67 molar excess | 91.5% |  |  |  |
| COCCOc1nn(-c2cccc(Oc3ccccc3)c2)c(=O)o1 |  | 93.7% | 0.69 molar excess | 92.4% |  |  |  |
| CCCCCCCCCCC[C@@H](C[C@@H]1OC(=O)[C@H]1CCCCCC)OC(=O)[C@@H]1CSCN1C(C)=O |  |  |  |  |  |  | IC50 [5]: 0.2 µM |
| CCCCCCCCCCCC[C@H]1CC[P@@](=O)(OC)OC(C)=C1C(=O)OC | > 20 µM |  |  |  | > 100 µM | > 100 µM | MIC50 [9]: 2 µM (≈ 0.805 µg/mL) |
| C[C@@H](O)[C@H]1C(=O)N2C(C(=O)O)=C(SCCNC=N)C[C@H]12 [IMIPENEM ANHYDROUS] |  |  |  |  | 11.3 µM (≈ 3.38 µg/mL) | 29.9 µM (≈ 8.95 µg/mL) | MIC50 [9]: 28.3 µM (≈ 8.47 µg/mL) |
| NCC[C@H](O)C(=O)N[C@@H]1C[C@H](N)[C@@H](O[C@H]2O[C@H](CN)[C@@H](O)[C@H](O)[C@H]2O)[C@H](O)[C@H]1O[C@H]1O[C@H](CO)[C@@H](O)[C@H](N)[C@H]1O [AMIKACIN] |  |  |  |  | 3.9 µM (≈ 2.28 µg/mL) | 7.4 µM (≈ 4.33 µg/mL) |  |
| CCCCCCCCCCC[C@@H](C[C@@H]1OC(=O)[C@H]1CCCCCC)OC(=O)[C@H]1CCCN1C(C)=O |  |  |  |  |  |  | IC50 [5]: 0.2 µM |
| O=c1oc(OCCOCc2ccccc2)nn1-c1ccc(Oc2ccccc2)cc1 | > 100 µM | 98.4% | 0.59 molar excess | 97% |  |  |  |
